Results from the METLIN SMRT retention time set (Domingo-Almenara et al. 2019).

Assay: gradient 5% acetonitrile 3 min, to 50% in 2 min, to 85% in 15 min, held 3 min, 100 µL/min
Conditions: column: Zorbax Extend-C18 2.1 x 50 mm; eluents: water / acetonitrile, 0.1% formic acid
Summary of the method: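 Pure standards were analyzed in mixtures of ~100 molecules using HPLC coupled to a quadrupole time-of-flight mass spectrometer, in both positive and negative ionization mode. Separation used a Zorbax Extend-C18 column (2.1 × 50 mm, 1.8 μm) at 100 μL/min, with water and acetonitrile each containing 0.1% formic acid. Dead and dwell volumes were 40 μL and 900 μL, and data were collected over 3 months. Retention time was read from computationally picked adduct peaks, each inspected manually.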

Structure (SMILES) | RP-LC retention time
Cc1ccc(N2CC(c3noc(COc4cccc(C)c4)n3)CC2=O)cc1 (stereo not drawn) | 1050 s
CC(C)c1ccc(S(=O)(=O)N(CC(=O)N2CCNCC2)CC2CCCO2)cc1 (stereo not drawn) | 602 s
CCCNC(=O)C1CCCN(c2nc3ncn(CC(=O)Nc4ccc5c(c4)CCC5)c(=O)c3s2)C1 (stereo not drawn) | 762 s
O=c1ccn(-c2cccc(F)c2)nc1-c1nc(-c2ccc3c(c2)OCO3)no1 | 846 s
Cc1ccccc1Oc1nccn2c(=O)n(CC(=O)NCc3ccccc3)nc12 | 797 s
O=C(NCc1cccs1)C1CCN(c2cnc3nccnc3c2)CC1 | 632 s
Cn1nccc1-c1cccc(-c2noc(-c3ccccc3Br)n2)c1 | 1180 s
O=C(Nc1ccc(Cl)cc1F)C1CCCN(C(=O)Cc2cccc3ccccc23)C1 (stereo not drawn) | 1050 s
Cn1c(CNc2nc3ccncc3n(Cc3ccccc3)c2=O)nc2ccccc21 | 571 s
CN1c2cc(C(=O)NCc3ccc(F)c(Cl)c3)ccc2C(=O)N2CCCCC21 (stereo not drawn) | 860 s
Cc1ccc(C)c(S(=O)(=O)N2CC=C(c3cn(C)c4ncccc34)CC2)c1 | 1070 s
CCN1c2cc(F)ccc2C(=O)NC12CCN(C(=O)c1ccc(F)cc1)CC2 | 714 s
Cc1ncsc1CN1CCCC(c2nc(-c3cnccn3)no2)CCNC(=O)CC1 (stereo not drawn) | 577 s
CCNC(=O)Nc1ccc(OCC(=O)NCc2cc(OC)cc(OC)c2)nc1 | 691 s
CCC(C)NC(=O)c1cn(-c2ccc(-c3nc(C4CC4)no3)cn2)cn1 (stereo not drawn) | 883 s
CCCn1c(C)cnc1C1CN(S(=O)(=O)c2cccc(Cl)c2)C1 | 669 s
CCCOc1ccc(C(=O)Nc2nnc(SCc3nnc(-c4ccccc4)o3)s2)cc1 | 1050 s
Cc1ccc(CN2CCC(CNC(=O)c3cc(=O)n(C)c4c3c(=O)n(C)c(=O)n4C)CC2)cc1 | 625 s
CCc1ccc(NC(=O)Nc2ccc(NC(=O)N3CCCC(C(=O)NC)C3)cc2)cc1 (stereo not drawn) | 730 s
Cc1ccc(-c2noc(C3CCCN3S(=O)(=O)c3ccc4c(c3)CCCC4)n2)cc1 (stereo not drawn) | 1350 s
CCCNC(=O)C1CCCN(c2ccc(SCC(=O)Nc3c(C)cccc3C)nn2)C1 (stereo not drawn) | 651 s
COc1cc(OC)cc(-c2noc(Cn3ccn4nc(-c5ccc(Cl)cc5)cc4c3=O)n2)c1 | 1130 s

Structure (SMILES) | RP-LC retention time
Cc1ccc(N2CCC(NC(=O)c3ccccc3C(F)(F)F)C2=O)cc1 (stereo not drawn) | 885 s
COc1cccc(CNC(=O)Cn2nc3c(Oc4ccc(Cl)cc4)nccn3c2=O)c1 | 849 s
COc1ccc(NC(=O)CSc2cc(NCc3ccccc3Cl)ncn2)c(OC)c1 | 933 s
O=c1c2cc(-c3cccs3)nn2cnn1Cc1nc(-c2cccc(C(F)(F)F)c2)no1 | 1140 s
CCOc1ccccc1NC(=O)C1CC(=O)N(c2n[nH]c3ccccc23)C1 (stereo not drawn) | 767 s
CCC(C)(C)C(=O)NC1CCN(C2=NS(=O)(=O)C(c3ccc(C)c(C)c3)=C2C)CC1 | 950 s
Cc1cccc(CNc2nnc(-c3nnc(C)o3)c3ccccc23)c1 | 831 s
Cc1ccc(C)c(NC(=O)Cn2cnc3nc(N4CCCC(C(=O)NC(C)C)C4)sc3c2=O)c1 (stereo not drawn) | 731 s
CCN1CCCn2cc(S(=O)(=O)N3CCN(c4ccccn4)CC3)cc2C1=O | 577 s
CCOc1ccccc1NC(=O)C1CCN(S(=O)(=O)c2ccc3[nH]c(=O)sc3c2)CC1 | 870 s
CCN(C(=O)C1CCCN(S(=O)(=O)c2cc(-c3noc(C)n3)cs2)C1)c1ccccc1 (stereo not drawn) | 983 s
CC1CCCCN1c1cc(-n2cnc(C(=O)N3CCCCC3)c2)ncn1 (stereo not drawn) | 880 s
FC1(F)CN[C@H](c2nc(-c3ccncc3)no2)C1 | 614 s
CCCS(=O)(=O)N1CCC2(CC1)CC(OCc1ccccc1)CCO2 (stereo not drawn) | 984 s
O=C(CCn1cnnn1)N1CCC2(CC1)CC(CC(=O)N1CCOCC1)CCO2 (stereo not drawn) | 585 s
Cc1ccccc1-c1noc(C2CCCN2S(=O)(=O)c2ccc(C(C)C)cc2)n1 (stereo not drawn) | 1340 s
CCn1ccc2cc(S(=O)(=O)N3CCCC(C(=O)NC4CCCCCC4)C3)ccc21 (stereo not drawn) | 1080 s
Cc1nc2cc(-c3noc(-c4cccc(Cl)c4)n3)ccc2n(C)c1=O | 1140 s
O=C(O)CCCC(=O)Nc1nc(-c2cccc3ccccc23)cs1 | 818 s
COC(=O)c1c(NCCN2CCC(C)CC2)c2cccc(Cl)c2[nH]c1=O | 583 s
O=S(=O)(c1cccn2c(SCc3cccc(F)c3)nnc12)N1CCc2ccccc2C1 | 959 s
O=C(NCc1ccncc1)C1CCCN(c2nc3ccsc3c(=O)n2Cc2ccc(F)cc2)C1 (stereo not drawn) | 630 s

Structure (SMILES) | RP-LC retention time
Cc1cc(C)c2[nH]c3c(c(=O)c2c1)CN(CC(=O)Nc1ccccc1)CC3 | 627 s
O=C(CCCn1nnc2ccccc2c1=O)Nc1ccc(F)c(Cl)c1 | 794 s
Cc1cc(C)c2c(N3CCSCC3)nc(C(=O)NCc3cccs3)nc2n1 | 746 s
Cc1cc(C)cc(NC(=O)c2c(C)oc3nc(C)nc(N4CCOCC4)c23)c1 | 888 s
CCCN(C)S(=O)(=O)c1cc(-c2nc(C)cs2)n(CC(=O)N2CCCCC2)c1 | 967 s
COc1ccc(OC)c(NC(=O)N2CCOc3ccc(Cl)cc32)c1 | 1010 s
COc1ccc(-c2noc(CN3CCN(c4ccccn4)CC3)n2)cc1 | 621 s
CC1CN(c2nc3c(c(=O)n(C)c(=O)n3C)n2Cc2cccc(F)c2)CC(C)O1 (stereo not drawn) | 885 s
CCOc1ccc(-c2[nH]ncc2CN)cc1 | 575 s
Cc1cc(C)cc(NC(=O)C(=O)NCC(c2ccc3c(c2)OCO3)N2CCOCC2)c1 (stereo not drawn) | 613 s
CCc1nc2c(c(=O)n1CC(=O)NCc1ccc(F)cc1)CN(Cc1ccccc1)CC2 | 649 s
O=C(NC1CCCCC1)C1CCCN(c2nc3ccsc3c(=O)n2Cc2ccc(F)cc2)C1 (stereo not drawn) | 972 s
COCCCNC(=O)C1CCN(c2ncnc3c2oc2ccccc23)CC1 | 613 s
Cc1nn2c(CNC(=O)c3cc(F)cc(F)c3)c(C)nc2s1 | 651 s
Cc1oc2ncnc(N3CCCCC3)c2c1C(=O)NCCN(Cc1ccco1)C1CCCC1 | 845 s
CCCN(CC1CC1)C(=O)CCC1CCCN(S(=O)(=O)c2ccc(C)cc2)C1 (stereo not drawn) | 1120 s
CCC(C)C(NC(=O)c1ccc(F)c(F)c1)C(=O)Nc1nc2ccccc2[nH]1 (stereo not drawn) | 774 s
O=C(NC1CCN(c2cc(-c3cccs3)[nH]n2)C1)c1cccc(F)c1 (stereo not drawn) | 715 s
Cc1ccc(F)c2c(=O)c3c([nH]c12)CCN(CC(=O)Nc1ccc(Cl)cc1)C3 | 646 s
Cc1cc(N2CCN(S(=O)(=O)c3ccc(Cl)cc3)CC2)nc(NC2CCCCC2)n1 | 884 s
CCc1ccc(-c2nc(NC(=O)c3cc(C)on3)sc2C)cc1 | 1160 s
O=C(c1cccc(F)c1)N1CCC[C@H]1c1nc(-c2ccccc2)n[nH]1 | 685 s

Structure (SMILES) | RP-LC retention time
CC1=C(c2ccc(F)cc2)S(=O)(=O)N=C1N1CCCN(C(=O)C2CCCC2)CC1 | 828 s
CCOC(=O)c1noc2ncnc(N3CCN(Cc4ccccc4)CC3)c12 | 643 s
CCN1CCN(C(=O)CN2C(=O)C3CCCCN3c3ccc(S(=O)(=O)N(CC)CC)cc32)CC1 (stereo not drawn) | 670 s
COc1ccc(NC(=O)Cn2cccc2-c2nnc(-c3ccccc3)o2)c(OC)c1 | 993 s
O=C(O)c1ccccc1SC1CC(=O)N(c2ccccc2OC(F)F)C1=O (stereo not drawn) | 741 s
COCCNC(=O)C1CCCN(c2ncnc3c2oc2ccccc23)C1 (stereo not drawn) | 633 s
CCOCC(=O)Nc1ccc(-c2nnc(CC)o2)cc1 | 657 s
CCC(C)NC(=O)CS(=O)Cc1cnn(-c2ccccc2)c1-n1cccc1 (stereo not drawn) | 756 s
c1ccc(N2CCN(Cc3nc(-c4ccc(N5CCSCC5)nc4)no3)CC2)cc1 | 937 s
COc1cccc(-n2c(N3CCC(C(=O)NC4CC4)CC3)nc3ccsc3c2=O)c1 | 682 s
CCCN1CCN(C(=O)C2CCN(c3nc4ccc(-c5ccccc5)nc4s3)CC2)CC1 | 693 s
Cc1ccc2cc(CN3C[C@@H](CO)[C@H](c4ccccn4)C3)c(=O)[nH]c2c1 | 585 s
O=S(=O)(Cc1cccc(F)c1)N1CCC(C2CCNC2)CC1 (stereo not drawn) | 632 s
O=C(NC1CCCCCC1)c1ccc(CN2CCN(C3CCCC3)C(=O)C2=O)cc1 | 823 s
O=C(Nc1ccc2c(c1)CCCN2S(=O)(=O)c1ccccc1)c1c(F)cccc1Cl | 1080 s
O=C(Cc1ccc(F)cc1)N1CCCCC1c1nncn1CC1CC1 (stereo not drawn) | 735 s
CCCNC(=O)C1CCCN(c2ccc(SCC(=O)Nc3cccc(C)c3C)nn2)C1 (stereo not drawn) | 665 s
COc1ccc(-n2cc(C(=O)OCC3CCCO3)c3ccccc3c2=O)cc1 (stereo not drawn) | 993 s
CCc1nc(-c2nnn(-c3ccc(F)cc3)c2C)no1 | 874 s
Cc1ccc(N2C(=O)CC(N3CCC(C(N)=O)CC3)C2=O)cc1C (stereo not drawn) | 607 s
O=C(C1CCN(S(=O)(=O)c2ccc3[nH]c4c(c3c2)CCCCC4)CC1)N1CCCC1 | 906 s
Cc1c(NC(=O)c2cccc3c2-c2ccccc2C3=O)c(=O)n(-c2ccccc2)n1C | 658 s
